These results are taken from PubChem BioAssay AID248 (DTP/NCI, 2004).

The subject of the assay is L1210 leukemia ip in BDF1 mice, survival T/C. As to the kind of experiment: NCI In Vivo Anticancer Drug Screen. Data for tumor model L1210 Leukemia (intraperitoneal) in B6D2F1 (BDF1) mice. As to conditions: endpoint: mean survival time, higher = longer survival. In outline: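 In this screen, tumor-bearing mice given compound are compared to those given vehicle, and their survival values are reported as a treated-to-control quotient.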

Where [1] appears, read: dose: 100.0 mg/kg/injection, schedule: Q04DX002 (ip), vehicle: Klucel (hydroxypropylcellulose) (HPC).
Where [2] appears, read: dose: 200.0 mg/kg/injection, schedule: Q04DX002 (ip), vehicle: Klucel (hydroxypropylcellulose) (HPC).
The mark [3] stands for this setting: dose: 400.0 mg/kg/injection, schedule: Q04DX002 (ip), vehicle: Klucel (hydroxypropylcellulose) (HPC).
[4] abbreviates: dose: 100.0 mg/kg/injection, schedule: Q04DX003 (ip), vehicle: saline with Tween-80.
Where [5] appears, read: dose: 200.0 mg/kg/injection, schedule: Q04DX003 (ip), vehicle: saline with Tween-80.
[6] abbreviates: dose: 100.0 mg/kg/injection, schedule: Q01DX001 (ip), vehicle: Klucel (hydroxypropylcellulose) (HPC).
Setting [7] is: dose: 100.0 mg/kg/injection, schedule: Q01DX009 (ip), vehicle: Klucel (hydroxypropylcellulose) (HPC).
[8] abbreviates: dose: 200.0 mg/kg/injection, schedule: Q01DX001 (ip), vehicle: Klucel (hydroxypropylcellulose) (HPC).
[9] abbreviates: dose: 200.0 mg/kg/injection, schedule: Q01DX009 (ip), vehicle: Klucel (hydroxypropylcellulose) (HPC).
Setting [10] is: dose: 400.0 mg/kg/injection, schedule: Q01DX001 (ip), vehicle: Klucel (hydroxypropylcellulose) (HPC).
Where [11] appears, read: dose: 400.0 mg/kg/injection, schedule: Q01DX009 (ip), vehicle: Klucel (hydroxypropylcellulose) (HPC).
The mark [12] stands for this setting: dose: 100.0 mg/kg/injection, schedule: Q01DX001 (ip), vehicle: saline.
Where [13] appears, read: dose: 200.0 mg/kg/injection, schedule: Q01DX001 (ip), vehicle: saline.
The mark [14] stands for this setting: dose: 400.0 mg/kg/injection, schedule: Q01DX001 (ip), vehicle: saline.
[15] abbreviates: dose: 100.0 mg/kg/injection, schedule: Q04DX003 (ip), vehicle: Klucel (hydroxypropylcellulose) (HPC).
[16] abbreviates: dose: 200.0 mg/kg/injection, schedule: Q04DX003 (ip), vehicle: Klucel (hydroxypropylcellulose) (HPC).
[17] abbreviates: dose: 400.0 mg/kg/injection, schedule: Q04DX003 (ip), vehicle: Klucel (hydroxypropylcellulose) (HPC).

Several values for one entry are separate records, joined by “and”; a condition that tells them apart may be missing. Equal values may be shown once. Toxic doses and inconclusive results are not listed.

For `COC(=O)C(=O)CC(=O)c1ccc([N+](=O)[O-])cc1`, the T/C is 95 % of control under setting [1], 95 % of control under setting [2] and 103 % of control under setting [3].
For `CCCCSc1ncc(C)c(NC)n1`, the T/C runs as follows: (dose: 25.0 mg/kg/injection, schedule: Q01DX Z (ip), vehicle: methylcellulose (MC)) 92 % of control; (dose: 50.0 mg/kg/injection, schedule: Q01DX Z (ip), vehicle: methylcellulose (MC)) 95 % of control.
With `CC1=CC(=O)C(Sc2ccc(C)cc2)=CC1=O`, the T/C was 98 % of control (dose: 75.0 mg/kg/injection, schedule: Q01DX001 (ip), vehicle: other) and 93 % of control (dose: 150.0 mg/kg/injection, schedule: Q01DX001 (ip), vehicle: other).
Turning to `C/C(=N/C(=O)NN)c1ccc(Cl)cc1`, the T/C is, setting by setting: (dose: 100.0 mg/kg/injection, schedule: Q01DX001 (ip), vehicle: saline with Tween-80) 108 % of control; under setting [4], 93 % of control; (dose: 200.0 mg/kg/injection, schedule: Q01DX001 (ip), vehicle: saline with Tween-80) 95 % of control; under setting [5], 98 % of control; (dose: 400.0 mg/kg/injection, schedule: Q01DX001 (ip), vehicle: saline with Tween-80) 101 % of control.
Take `O=C(O)CN1C(=O)C2C3C=CC(C3)C2C1=O` (stereo not drawn): the T/C was 97 % of control under setting [4]; 94 % of control under setting [5]; 94 % of control (dose: 400.0 mg/kg/injection, schedule: Q04DX003 (ip), vehicle: saline with Tween-80).
As for `CCOC(=O)C(C(=O)OCC)C1c2ccccc2C([N+](=O)[O-])c2ccccc21` (stereo not drawn), the T/C runs as follows: under setting [6], 91 % of control; under setting [7], 96 % of control; under setting [8], 96 % of control; under setting [9], 89 % of control; under setting [10], 91 % of control; under setting [11], 103 % of control.
On to `CCOC(=O)c1ccc(NC(=O)Nc2cccc(C(F)(F)F)c2)cc1`, for which the T/C under setting [7] was 92 % of control and the T/C under setting [9] is 90 % of control.
As for `O=C(CCBr)Nc1ccc(Cl)cc1C(=O)c1ccccc1`, the T/C is 102 % of control under setting [7], 97 % of control under setting [9] and 100 % of control under setting [11].
In the case of `O=C1COc2cc(O)c(O)cc21`, the T/C is, setting by setting: under setting [12], 104 % of control; under setting [13], 103 % of control; under setting [14], 104 % of control.
As for `CC/C(=N/O)c1ccccc1`, the T/C (dose: 100.0 mg/kg/injection, schedule: Q04DX003 (ip), vehicle: saline sonified) was 110 % of control; the T/C (dose: 200.0 mg/kg/injection, schedule: Q04DX003 (ip), vehicle: saline sonified) was 95 % of control; the T/C (dose: 400.0 mg/kg/injection, schedule: Q04DX003 (ip), vehicle: saline sonified) is 93 % of control.
`NC(=O)NC(=O)c1nc2ccccc2[nH]c1=O`: the T/C is 95 % of control under setting [1], 95 % of control under setting [2] and 100 % of control under setting [3].
Take `COc1ccc(OC)c(/C=C/C=O)c1`: the T/C reads like this: under setting [12], 110 % of control; under setting [13], 96 % of control; under setting [14], 98 % of control.
Consider `NC1=NC2OC(CO)C(O)C2O1` (stereo not drawn), for which the T/C is, setting by setting: (dose: 100.0 mg/kg/injection, schedule: Q01DX009 (ip), vehicle: saline) 104 % of control; under setting [15], 100 % of control; (dose: 200.0 mg/kg/injection, schedule: Q01DX009 (ip), vehicle: saline) 95 % of control; under setting [16], 95 % of control; (dose: 400.0 mg/kg/injection, schedule: Q01DX009 (ip), vehicle: saline) 101 % of control; under setting [17], 97 % of control.
Take `CCOC(=O)Nc1cc2c(c(N)n1)N=C(CN(C)c1ccc(Cl)cc1)CN2`: the T/C was 150 % of control and 165 % of control under setting [6]; 93 % of control (dose: 150.0 mg/kg/injection, schedule: Q01DX001 (ip), vehicle: Klucel (hydroxypropylcellulose) (HPC)).
As for `OC(CN1CC1)c1ccccc1` (stereo not drawn), the T/C was 95 % of control (dose: 20.0 mg/kg/injection, schedule: Q01DX009 (ip), vehicle: Klucel (hydroxypropylcellulose) (HPC)); 97 % of control (dose: 20.0 mg/kg/injection, schedule: Q04DX003 (ip), vehicle: Klucel (hydroxypropylcellulose) (HPC)); 95 % of control (dose: 40.0 mg/kg/injection, schedule: Q01DX009 (ip), vehicle: Klucel (hydroxypropylcellulose) (HPC)); 102 % of control (dose: 40.0 mg/kg/injection, schedule: Q04DX003 (ip), vehicle: Klucel (hydroxypropylcellulose) (HPC)); 97 % of control (dose: 80.0 mg/kg/injection, schedule: Q04DX003 (ip), vehicle: Klucel (hydroxypropylcellulose) (HPC)).
Consider `O=c1[nH]c2ccc([As](O)O)cc2[nH]1`, for which the T/C by setting is: (dose: 12.5 mg/kg/injection, schedule: Q01DX009 (ip), vehicle: water) 109 % of control; (dose: 25.0 mg/kg/injection, schedule: Q01DX009 (ip), vehicle: water) 110 % of control; (dose: 50.0 mg/kg/injection, schedule: Q01DX001 (ip), vehicle: water) 98 % of control; (dose: 50.0 mg/kg/injection, schedule: Q01DX009 (ip), vehicle: water) 124 % of control; (dose: 100.0 mg/kg/injection, schedule: Q01DX001 (ip), vehicle: water) 101 % of control; (dose: 200.0 mg/kg/injection, schedule: Q01DX001 (ip), vehicle: water) 104 % of control. Moreover, the T/C (dose: 400.0 mg/kg/injection, schedule: Q01DX001 (ip), vehicle: water) is 114 % of control.
Consider `CCCCCCCCCC(N)C(=O)O` (stereo not drawn), for which the T/C (dose: 50.0 mg/kg/injection, schedule: Q04DX002 (ip), vehicle: gum acacia) is 100 % of control; the T/C (dose: 100.0 mg/kg/injection, schedule: Q04DX002 (ip), vehicle: gum acacia) is 98 % of control; the T/C (dose: 200.0 mg/kg/injection, schedule: Q04DX002 (ip), vehicle: gum acacia) was 100 % of control.
For `O=C(Nc1cccc(Cl)c1)OCCOCCOC(=O)Nc1cccc(Cl)c1`, the T/C is, setting by setting: under setting [15], 93 % of control and 104 % of control; under setting [16], 101 % of control and 106 % of control; under setting [17], 97 % of control and 98 % of control.
In the case of `COc1ccc2c(c1)sc1ncnc(N)c12`, the T/C (dose: 50.0 mg/kg/injection, schedule: Q01DX009 (ip), vehicle: Klucel (hydroxypropylcellulose) (HPC)) was 105 % of control; the T/C under setting [7] is 105 % of control; the T/C under setting [9] is 101 % of control.
On to `O=C(O)C1C2C=CC(C2)C1C(F)(F)C(F)(F)C(F)(F)F` (stereo not drawn), for which the T/C is, setting by setting: under setting [6], 102 % of control; under setting [8], 102 % of control; under setting [10], 93 % of control.
On to `Nc1ccc2c(O)c(N=Nc3ccc4c(O)cc(S(=O)(=O)O)cc4c3)c(S(=O)(=O)O)cc2c1`, for which the T/C was 100 % of control under setting [7]; 96 % of control (dose: 100.0 mg/kg/injection, schedule: Q04DX003 (ip), vehicle: saline); 112 % of control under setting [9]; 100 % of control (dose: 200.0 mg/kg/injection, schedule: Q04DX003 (ip), vehicle: saline); 88 % of control under setting [11]; 94 % of control (dose: 400.0 mg/kg/injection, schedule: Q04DX003 (ip), vehicle: saline).
For `C=CCNC(=S)NCC=C`, the T/C is 102 % of control under setting [7]; 102 % of control under setting [15]; 100 % of control under setting [9]; 104 % of control under setting [16]; 100 % of control under setting [11]; 102 % of control under setting [17].
Regarding `O=P(Cc1ccccc1)(Cc1ccccc1)Cc1ccccc1`, the T/C was 100 % of control under setting [7], 91 % of control under setting [9] and 96 % of control under setting [11].
For the compound `COC(=O)C(=O)c1ccccc1`, the T/C was 101 % of control (dose: 100.0 mg/kg/injection, schedule: Q01DX009 (ip), vehicle: saline with Tween-80); 100 % of control (dose: 200.0 mg/kg/injection, schedule: Q01DX009 (ip), vehicle: saline with Tween-80); 89 % of control (dose: 400.0 mg/kg/injection, schedule: Q01DX009 (ip), vehicle: saline with Tween-80).
